Experimental data published in US20140371237A1, “p19Arf, HMGA2 and MDM2 For Use in the Diagnosis and Treatment of Aberrant Cell Growth” (University of Bremen, priority 2010, published 2014).

Tested on: UL cells
Assay: qRT-PCR of p21, β-galactosidase, BAX and Ki-67 in UL cells treated with nutlin-3
Format: cell-based, human
Conditions: nutlin-3 30 and 50 μM, 24 h and 72 h
Protocol: For treatment by nutlin-3 cells of an UL with an apparently normal karyotype (5th in vitro passage) were plated in Leighton-tubes at a density of 200,000 on 10 mm×50 mm cover slips 24 h before incubation with nutlin-3 (Biomol, Hamburg, Germany). Cells of the UL were treated with 30 μM and 50 μM nutlin-3 for 24 h and for 72 h, respectively. As controls cells were cultured in medium 199 supplemented with 20% FCS without nutlin-3 for 24 h and 72 h.
Total RNA was isolated from frozen tissue samples and from cell culture by using the miRNeasy Mini Kit (Qiagen, Hilden, Germany) and DNase I digestion was performed following the manufacturer's instructions.
250 ng of total RNA were reverse transcribed with M-MLV reverse transcriptase (Invitrogen, Karlsruhe, Germany), RNase Out (Invitrogen, Karlsruhe, Germany), random hexamers and dNTPs according to the manufacturer's instructions. RNA was denatured at 65° C. for 5 min and subsequently kept on ice for 1 min. After adding the enzyme to the RNA primer mixes, samples were incubated for 10 min at 25° C. to allow annealing of the random hexamers. Reverse transcription was performed at 37° C. for 50 min followed by inactivation of the reverse transcriptase at 70° C. for 15 min.
Relative quantification of transcription levels was carried out by real-time PCR analyses using the Applied Biosystems 7300 Real-Time PCR system (Applied Biosystems, Darmstadt, Germany). Commercially available gene expression assays (Applied Biosystems, Darmstadt, Germany) were used for quantification of mRNA of human HMGA2 (Hs00171569 ml), p19Arf (Hs00924091), BAX (Hs00180269_m1), MDM2 (Hs01066930_m1), p21 (Hs99999142), Ki-67 (Hs00606991_m1), p16^Ink4a (Hs00923893_m1) and β-galactosidase (Hs01035162). The housekeeping gene hypoxanthine phosphoribosyltransferase (HPRT) served as endogenous control with the primers 5′-GGCAGTATAATCCAAAGATGGTCAA-3′ (forward) (SEQ ID NO.:1), 5′-GTCTGGCTTATATCCAACACTTCGT-3′ (reverse) (SEQ ID NO.:2), and the fluorescent probe 5′-6-FAM-CAAGCTTGCTGGTGAAAAGGACCCC-TAMRA-3′ (SEQ ID NO.:3); see also Specht et al. (2001). All qRT-PCR experiments were done in triplicate.

Q: Which “expression of BAX (qRT-PCR)” value does the source give for `COc1ccc(C2=N[C@@H](c3ccc(Cl)cc3)[C@@H](c3ccc(Cl)cc3)N2C(=O)N2CCNC(=O)C2)c(OC(C)C)c1` [nutlin-3] here?
A: clearly increased

Q: And the “expression of Ki-67 (qRT-PCR)” value?
A: reduced

Q: And the “expression of p21 (qRT-PCR)” value?
A: clearly increased

Q: And the “expression of β-galactosidase (qRT-PCR)” value?
A: clearly increased
